# Test results taken from patent US20010044404A1, “Cleaning process and composition” (3M Innovative Properties Company, priority 1995, published 2001).
# Columns and labels:
# [1] = Ability to dissolve halogenated oils (miscibility); format: physicochemical; conditions: room temperature
# Experimental: The ability of alkoxy-substituted perfluorocompounds to dissolve several halogenated oils was determined by adding a measured amount of oil to alkoxy-substituted perfluorocompound until the resulting mixture became turbid or phase-split. […] The results (shown in Table 12) indicate that alkoxy-substituted perfluorocompounds have very high ability to dissolve halogenated oils. Thus, the perfluorocompounds can be used as carrier solvents for halogenated oils in the deposition of coatings of such oils on substrate surfaces.
# [2] = Stability in the presence of base: aqueous NaOAc, fluoride ion measurement; format: physicochemical; conditions: 10 g with 10 g 0.1M NaOAc, 110° C., 16 hours
# Experimental: To assess hydrolytic stability, a ten gram sample of alkoxy-substituted perfluorocompound was combined with 10 g of 0.1M NaOAc and sealed in a 2.54 cm (internal diameter) by 9.84 cm Monel™ 400 alloy (66% nickel, 31.5% copper, and 1.2% iron and several minor components) tube (available from Paar Instrument Co. of Moline, Ill. as Part Number 4713cm). The tube was heated at 110° C. in a forced air convection oven for 16 hours. After cooling to room temperature, a 1 mL sample of the tube contents was diluted with 1 mL of total ionic strength adjustment buffer (TISAB, available from Orion Research, Inc., a mixture of 1,2-cyclohexylene dinitrilotetraacetic acid, deionized water, sodium acetate, sodium chloride, and acetic acid). The concentration of fluoride ion (resulting from any reaction of the perfluorocompound with the aqueous NaOAc) was measured using an Orion Model 720A Coulombmeter with a F-specific electrode which had been previously calibrated using 0.5 and 500 ppm F^− solutions. Based on the measured fluoride ion concentration, the rate at which HF had been generated by reaction of the aqueous NaOAc with the perfluorocompound was calculated.
# [3] = Closed cup flash point ASTM D3278-96; format: physicochemical
# Experimental: (§1) Various properties were measured for C4F9OCH3, CHClFCF2OCH3, and blends of each ether compound with cosolvent, trans-1,2-dichloroethylene (hereinafter, t-DCE) or n-butyl bromide, at various weight ratios.
# [4] = Mineral oil removal with boiling methyl decanoate/perfluorocompound mixture; conditions: boiling mixture 40 volume % methyl decanoate, 60 volume % perfluorocompound
# Experimental: The above-described test coupon was dipped in white heavy mineral oil (available from Aldrich Chemical), was immersed in a boiling single-phase mixture of 40 volume % of a solvating agent comprising essentially methyl decanoate and 60 volume % of alkoxy-substituted perfluorocompound (a cleaning composition of the invention) for 60 seconds, was cooled for 60 seconds, and was then immersed in mixture vapor for 30 seconds. The percent oil removal was determined in the above-described manner.
# [5] = Stability in the presence of oxidant (potassium permanganate in acetone); format: physicochemical; conditions: refluxed four hours
# Experimental: To assess oxidative stability, potassium permanganate (20 g, 0.126 mole) was dissolved in acetone, and C4F9OCH3 (500 g of 99.9% purity, 2.0 mole) was added to the resulting solution. The solution was refluxed for four hours, with no indication that the permanganate had been consumed (as evidenced by the absence of brown MnO2). The refluxed solution was then distilled into a 500 mL Barrett trap filled with water. The lower fluorochemical phase of the resulting mixture was separated from the upper phase, was washed with four 1.5 L aliquots of water, and was dried by passage through a column of silica gel to yield 471 g of resulting product.
# [6] = Open cup flash point ASTM D1310-86; format: physicochemical
# Experimental: as §1
# [7] = Perfluoropolyether oil removal in solvent vapor; conditions: Brayco 815Z; vapor over boiling liquid, 60 seconds
# Experimental: The above-described aluminum coupon was dipped into Brayco 815Z perfluoropolyether oil (available from Castrol Inc., molecular weight of about 10,000) and then immersed in alkoxy-substituted perfluorocompound vapor (over the boiling liquid) for 60 seconds. The percent oil removal was determined in the above-described manner.
compound,measurement,setting,value
"COC(F)(F)C(F)(F)C(F)(F)C(F)(F)F [Example C4F9OCH3, perfluorobutyl methyl ether]",Miscibility with solute,"[1]; Brayco 815Z Perfluoropolyether (MW about 10,000)",Miscible (greater than or equal to 50 percent by volume solubility at room temperature)
same,Miscibility with solute,[1]; Chlorotrifluoroethylene Fluid (Inland 41 Vacuum Pump Oil),Miscible (greater than or equal to 50 percent by volume solubility at room temperature)
same,Miscibility with solute,[1]; Fomblin AM-2001 Functionalized Perfluoropolyether,Miscible (greater than or equal to 50 percent by volume solubility at room temperature)
same,HF Generation Rate,[2],0.67 µg/g/h
same,Closed Cup Flash Point (ASTM D3278-96),"[3]; 20 weight % ether, 80 % n-butyl bromide",none^4
same,Closed Cup Flash Point (ASTM D3278-96),"[3]; 30 weight % ether, 70 % n-butyl bromide",none^4
same,Closed Cup Flash Point (ASTM D3278-96),"[3]; 50 weight % ether, 50 % n-butyl bromide",none^4
same,Closed Cup Flash Point (ASTM D3278-96),"[3]; 80 weight % ether, 20 % n-butyl bromide",none^4
same,Closed Cup Flash Point (ASTM D3278-96),"[3]; 100 weight % ether, 0 % n-butyl bromide, raised to 140° F. (60° C.)",none^4
same,Percent Soil Removed,[4],94.61%
same,Stability in the presence of oxidant,[5],stable in the presence of the oxidant
same,Open Cup Flash Point (ASTM D1310-86),"[6]; 20 weight % ether, 80 % t-DCE",none
same,Open Cup Flash Point (ASTM D1310-86),"[6]; 50 weight % ether, 50 % t-DCE",none
same,Open Cup Flash Point (ASTM D1310-86),"[6]; 80 weight % ether, 20 % t-DCE",none
same,Open Cup Flash Point (ASTM D1310-86),"[6]; 100 weight % ether, 0 % t-DCE",none
same,Percent Soil Removed,[7],89.9%
